13 molecules from patent EP0358047A2, “Method of controlling phytopathogenic fungi” (AMERICAN CYANAMID COMPANY, priority 1988, dated 1990) can be followed below.

Where two headings read alike, the source gives them in different places.

Experiment in all cases: In vitro fungicide screen: inhibition of mycelial growth on agar medium
What all share (type): cell-based

Assay [1] concerns Pythium ultimum (Pyth). Particulars: two days, room temperature; for inhibition at 1 ppm: Rate 1 ppm in agar medium. Here is the method:
(§1) Severe soilborne diseases such as damping off, seedling blight, crown rot, and root rot, among others are caused by certain plant pathogenic fungi. An in vitro assay is conducted to determine whether test compounds will inhibit the mycelial growth of said fungi. Pathogens, the method of testing, and the rating system used are reported below.
(§2) Assay fungi include the following plant pathogens: • Botrytis cinerea (Botry) • Pseudocerosporella herpotrichoides (Pseudo) • Pythium ultimum (Pyth) • Rhizoctonia solani (Rhiz)
(§3) The test compound (2.5-10 mg) is dissolved in 0.5 mL acetone, diluted with 4.5 mL sterile deionized water, and mixed with 95 mL of an autoclaved and partially cooled, chemically defined agar medium in a 250 mL flask. Test compounds that are insoluble are prepared as a fine suspension ultrasonically, or with a glass tissue grinder, before addition to the medium. The chemically defined medium used in these experiments is as follows: • 15 g of sucrose, 0.5 g NH4Cl, 0.5 g KNO3, 0.5 g KH2PO4, 0.5 g K2HP04, 0.25 g MgSO4.7H2O, 50 mg CaC)2.6H20, 0.75 mg FeSO4.7H2O, 0.22 mg MnSO4.5H2O, 0.6 mg CuSO4.5H2O, 7.5 mg ZnC12, 2.5 mg thiamine, 60 µg(NH4)6Mo7O24.4H2O, 90 u.g H3BO3, 5 ug biotin, 20 g agar, and water to 1L.
(§4) The mixture of test compound and agar medium as described above is poured into several 100 mm x 15 mm sterile plastic plates and allowed to solidify. The surface of each plate is inoculated with a single disc of mycelium and agar cut with an 8 mm diameter cork borer from actively growing cultures of assay fungi on a chemically defined agar medium. The plates are incubated at room temperature. Growth inhibition is determined when the mycelial growth on unamended control media has reached the edge of the petri plates. The time interval varies depending on the growth rate of the fungus; two days for Pythium ultimum (Pyth) and Rhizoctonia solani (Rhiz), five days for Botrytis cinerea (Botry), and 7-10 days for Pseudocercosporella herpotrichoides (Pseudo). Each colony diameter is measured and compared with the untreated control and the percent inhibition is calculated as follows: [formula] Each test includes a solvent blank consisting of the formulation without a test compound in addition to the untreated control.

The test system of assay [2] is Botrytis cinerea (Botry). Particulars: five days, room temperature. The method, then: as §1, §2, §3, §4
The test system of assay [3] is Pseudocercosporella herpotrichoides (Pseudo). The settings on record: 7-10 days, room temperature. Here is the method: as §1, §2, §3, §4
The subject of assay [4] is Rhizoctonia solani (Rhiz). The settings on record: for inhibition at 10 ppm: read-out: % Growth Inhibition Rhiz. The method, then: as §1, §2, §3, §4
The mark [5] stands for this setting: Globisporangium ultimum, 48 h, Rate 100 ppm in agar medium.
The mark [6] stands for this setting: Botrytis cinerea, 120 h, Rate 100 ppm in agar medium.
The mark [7] stands for this setting: Oculimacula yallundae, Rate 100 ppm in agar medium.
Where [8] appears, read: Rhizoctonia solani, 48 h, Rate 100 ppm in agar medium, two days, room temperature.
Setting [9] is: Rhizoctonia solani, 48 h, Rate 10 ppm in agar medium, two days, room temperature.

As to `O=[N+]([O-])c1c(-c2ccc(Br)cc2)[nH]c(Cl)c1Cl` [2-(p-Bromo-phenyl)-4,5-dichloro-3-nitropyrrole], the inhibition at 100 ppm was 68% in assay [1] (setting [5]), 89% in assay [2] (setting [6]), 83% in assay [3] (setting [7]) and 92% in assay [4] (setting [8]).
On the same counts, the results for `N#Cc1cc[nH]c1-c1ccccc1` [2-Phenylpyrrole-3-carbonitrile, 2-Phenylpyrrole-3-carbonitrile] are 100%, 95%, 100% and 89%.
As for `N#Cc1c(-c2ccc(Cl)cc2)[nH]c(C(F)(F)F)c1Br` [4-Bromo-2-(p-chlorophenyl)-5-(trifluoromethyl)pyrrole-3-carbonitrile], in assay [4] (Rhizoctonia solani, 48 h), the inhibition at 10 ppm turned out to be 100%.
`N#Cc1cc[nH]c1-c1cccc(Cl)c1` [2-(m-Chloro-phenyl)pyrrole-3-carbonitrile]: the inhibition at 100 ppm came to 82% in assay [1] (setting [5]), 74% in assay [2] (setting [6]), 67% in assay [3] (setting [7]) and 95% in assay [4] (setting [8]).
On the same counts, the results for `O=[N+]([O-])c1c(-c2ccc(Cl)cc2)[nH]c(Cl)c1Cl` [2,3-Dichloro-5-(p-chlorophenyl) -4-nitropyrrole] are 92.1%, 96.3%, 50% and 96%.
For `N#Cc1c(-c2ccc(Cl)cc2)[nH]c(Cl)c1Cl` [4,5-Dichloro-2-(p-chlorophenyl)pyrrole-3-carbonitrile], the inhibition at 25 ppm in assay [1] (Globisporangium ultimum, 48 h, Rate 25 ppm in agar medium) came out at 34.2%; in assay [2] (Botrytis cinerea, 120 h, Rate 25 ppm in agar medium), 82.1%; in assay [3] (Oculimacula yallundae, Rate 25 ppm in agar medium), 0%; in assay [4] (Rhizoctonia solani, 48 h, Rate 25 ppm in agar medium, two days, room temperature), 73.3%. In addition, the inhibition at 50 ppm in assay [1] (Globisporangium ultimum, 48 h, Rate 50 ppm in agar medium) was found to be 44.7%; in assay [2] (Botrytis cinerea, 120 h, Rate 50 ppm in agar medium) it was 71.4%; in assay [3] (Oculimacula yallundae, Rate 50 ppm in agar medium) it was 40%; in assay [4] (Rhizoctonia solani, 48 h, Rate 50 ppm in agar medium, two days, room temperature), 73.3%. Moreover, the inhibition at 100 ppm in assay [1] (setting [5]) was 45%; in assay [2] (setting [6]) it was 66.7%; in assay [3] (setting [7]), 42.8%; in assay [4] (setting [8]), 64.7%.
Consider `N#Cc1cc([N+](=O)[O-])c(-c2ccc(Cl)c(Cl)c2)[nH]1` [5-(3,4-Dichlorophenyl)-4-nitropyrrole-2-carbonitrile], for which, in assay [1] (Globisporangium ultimum, 48 h), the inhibition at 1 ppm came out at 100%. Further, the inhibition at 10 ppm in assay [4] (setting [9]) stood at 100%.
Take `O=[N+]([O-])c1c(-c2ccccc2)[nH]c(Br)c1Br` [2,3-Dibromo-4-nitro-5-phenyl-pyrrole]: the inhibition at 100 ppm was 97% in assay [1] (setting [5]), 87% in assay [2] (setting [6]), 71% in assay [3] (setting [7]) and 63% in assay [4] (setting [8]).
The matching figures for `O=[N+]([O-])c1c(-c2ccccc2)[nH]c(Cl)c1Cl` [2,3-Dichloro-4-nitro-5-phenyl-pyrrole, 2,3-Dichloro-4-nitro-5-phenylpyrrole]: 100%, 97%, 100% and 81%.
In the case of `O=[N+]([O-])c1c(-c2ccc(C(F)(F)F)cc2)[nH]c(Cl)c1Cl` [2,3-Dichloro-4-nitro-5-(α,α,α-trifluoro-p-tolyl)-pyrrole], the inhibition at 100 ppm in assay [1] (setting [5]), in assay [2] (setting [6]), in assay [3] (setting [7]) and in assay [4] (setting [8]) was 100% each time.
Regarding `O=[N+]([O-])c1c(Br)[nH]c(Br)c1-c1ccccc1` [2,5-dibromo-3-nitro-4-phenyl-pyrrole], the inhibition at 1 ppm in assay [1] (Globisporangium ultimum, 48 h) stood at 100%. For the same molecule, the inhibition at 10 ppm in assay [3] (Oculimacula yallundae, Rate 10 ppm in agar medium) was 100%; in assay [4] (setting [9]), 100%.
`N#Cc1cc[nH]c1-c1ccc(Cl)cc1` [2(p-Chlorophenyl)-pyrrole-3-carbonitrile]: the inhibition at 100 ppm came out at 95% in assay [1] (setting [5]), 68% in assay [2] (setting [6]), 86% in assay [3] (setting [7]) and 61% in assay [4] (setting [8]).
With `N#Cc1c(-c2ccccc2Cl)[nH]c(Cl)c1Cl` [4,5 Dichloro-2-(o-chlorophenyl) pyrrole-3-carbo-nitrile], the “% Growth Inhibition Pyth” value in assay [1] (Rate 100 ppm in agar medium) turned out to be 0%. In assay [2] (Rate 100 ppm in agar medium), the “% Growth Inhibition Botry” value is 3.1%. Also, in assay [3] (Rate 100 ppm in agar medium), the “% Growth Inhibition Pseudo” value stood at 16.7%. Besides, in assay [4] (Rate 100 ppm in agar medium, two days, room temperature), the “% Growth Inhibition Rhiz” value came to 52.6%.
